Paper PMC9105386, “Development and Characterization of Indole-Responsive Whole-Cell Biosensor Based on the Inducible Gene Expression System from Pseudomonas putida KT2440” (International Journal of Molecular Sciences, 2022)

Target: T1, TrpI (PpTrpI/PPP_RS00425 inducible system) (Pseudomonas putida, UniProt Q88RP5)
T1 sequence (Q88RP5 1-298): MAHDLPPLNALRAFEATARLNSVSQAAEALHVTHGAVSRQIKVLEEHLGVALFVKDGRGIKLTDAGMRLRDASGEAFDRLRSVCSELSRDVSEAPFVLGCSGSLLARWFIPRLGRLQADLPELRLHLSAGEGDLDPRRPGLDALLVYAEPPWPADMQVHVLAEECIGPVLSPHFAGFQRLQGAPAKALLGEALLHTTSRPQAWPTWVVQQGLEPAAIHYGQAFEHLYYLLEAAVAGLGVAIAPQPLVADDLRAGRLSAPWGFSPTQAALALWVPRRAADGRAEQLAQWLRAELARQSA
Test: RFP reporter induction in whole cells, Hill fit
Assay type: cell-based
Conditions: read-out: Km
Text: RFP reporter induction in whole cells, Hill fit on TrpI (PpTrpI/PPP_RS00425 inducible system)

Work on `c1ccc2[nH]ccc2c1` [compound 1, indole] yielded an EC50 of 1.35 mM.
